PubChem BioAssay AID330 (DTP/NCI, 2004)
Several values for one entry are separate records, joined by “and”; a condition that tells them apart may be missing. Identical values can stand only once. Inconclusive results and toxic doses are left out. How the source made its calls: active means survival T/C of 150% or more; inactive means T/C below 125% in these data. Square brackets hold non-standard residues; d marks the D form. Peptide text beside a SMILES is read from it. * marks the point of attachment. ξ: configuration not given here. ξF = NC(Cc1ccccc1)C(=O)O; Cbz = O=C(OCc1ccccc1)*

Tested on: P388 leukemia ip, CD2F1 mice, survival T/C
Assay: NCI In Vivo Anticancer Drug Screen. Data for tumor model P388 Leukemia (intraperitoneal) in CD2F1 (CDF1) mice
Settings: endpoint: median survival time, higher = longer survival
Outline: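 Mice carrying the transplanted tumor received test compound or vehicle. Survival was recorded in each group, and the value is the treated-group measurement divided by that of the vehicle-treated control group.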

[1] = dose: 50.0 mg/kg/injection, schedule: Q01DX009 (ip), vehicle: saline with Tween-80
[2] = dose: 100.0 mg/kg/injection, schedule: Q01DX009 (ip), vehicle: saline with Tween-80
[3] = dose: 200.0 mg/kg/injection, schedule: Q01DX009 (ip), vehicle: saline with Tween-80
[4] = dose: 25.0 mg/kg/injection, schedule: Q01DX009 (ip), vehicle: saline with Tween-80
[5] = dose: 60.0 mg/kg/injection, schedule: Q01DX005 (ip), vehicle: saline with Tween-80
[6] = dose: 120.0 mg/kg/injection, schedule: Q01DX005 (ip), vehicle: saline with Tween-80
[7] = dose: 240.0 mg/kg/injection, schedule: Q01DX005 (ip), vehicle: saline with Tween-80
[8] = dose: 50.0 mg/kg/injection, schedule: Q01DX005 (ip), vehicle: saline with Tween-80
[9] = dose: 100.0 mg/kg/injection, schedule: Q01DX005 (ip), vehicle: saline with Tween-80
[10] = dose: 200.0 mg/kg/injection, schedule: Q01DX005 (ip), vehicle: saline with Tween-80
[11] = dose: 12.5 mg/kg/injection, schedule: Q01DX009 (ip), vehicle: water
[12] = dose: 100.0 mg/kg/injection, schedule: Q04DX003 (ip), vehicle: saline
[13] = dose: 200.0 mg/kg/injection, schedule: Q04DX003 (ip), vehicle: saline
[14] = dose: 400.0 mg/kg/injection, schedule: Q04DX003 (ip), vehicle: saline
[15] = dose: 6.25 mg/kg/injection, schedule: Q01DX009 (ip), vehicle: saline with Tween-80
[16] = dose: 12.5 mg/kg/injection, schedule: Q01DX009 (ip), vehicle: saline with Tween-80
[17] = dose: 3.12 mg/kg/injection, schedule: Q01DX009 (ip), vehicle: saline with Tween-80
[18] = dose: 6.25 mg/kg/injection, schedule: Q01DX009 (ip), vehicle: Klucel (hydroxypropylcellulose) (HPC)
[19] = dose: 12.5 mg/kg/injection, schedule: Q01DX009 (ip), vehicle: Klucel (hydroxypropylcellulose) (HPC)
[20] = dose: 25.0 mg/kg/injection, schedule: Q01DX009 (ip), vehicle: Klucel (hydroxypropylcellulose) (HPC)
[21] = dose: 50.0 mg/kg/injection, schedule: Q01DX009 (ip), vehicle: Klucel (hydroxypropylcellulose) (HPC)
[22] = dose: 100.0 mg/kg/injection, schedule: Q01DX009 (ip), vehicle: Klucel (hydroxypropylcellulose) (HPC)
[23] = dose: 200.0 mg/kg/injection, schedule: Q01DX009 (ip), vehicle: Klucel (hydroxypropylcellulose) (HPC)

Measured: T/C

CCN(CC)C1CS(=O)(=O)OC2=C1Cc1ccccc1CC2 (stereo not given)
inactive: dose: 50.0 mg/kg/injection, schedule: Q04DX003 (ip), vehicle: Klucel (hydroxypropylcellulose) (HPC) 100 % of control | dose: 100.0 mg/kg/injection, schedule: Q04DX003 (ip), vehicle: Klucel (hydroxypropylcellulose) (HPC) 99 % of control | dose: 200.0 mg/kg/injection, schedule: Q04DX003 (ip), vehicle: Klucel (hydroxypropylcellulose) (HPC) 105 % of control

Oc1c(Cl)cc(Cl)cc1C=NCCSc1ccc(Cl)cc1
inactive: dose: 50.0 mg/kg/injection, schedule: Q01DX005 (ip), vehicle: Klucel (hydroxypropylcellulose) (HPC) 99 % of control and 108 % of control and 111 % of control | dose: 100.0 mg/kg/injection, schedule: Q01DX005 (ip), vehicle: DMSO 115 % of control | dose: 100.0 mg/kg/injection, schedule: Q01DX005 (ip), vehicle: Klucel (hydroxypropylcellulose) (HPC) 105 % of control and 115 % of control and 93 % of control | dose: 200.0 mg/kg/injection, schedule: Q01DX005 (ip), vehicle: DMSO 117 % of control | dose: 400.0 mg/kg/injection, schedule: Q01DX005 (ip), vehicle: DMSO 118 % of control | dose: 400.0 mg/kg/injection, schedule: Q01DX005 (ip), vehicle: Klucel (hydroxypropylcellulose) (HPC) 101 % of control and 120 % of control | dose: 600.0 mg/kg/injection, schedule: Q01DX005 (ip), vehicle: DMSO 108 % of control

Cc1cc(Cl)c(C)cc1Cl
inactive: [1] 91 % of control | [2] 95 % of control | dose: 100.0 mg/kg/injection, schedule: Q04DX003 (ip), vehicle: saline with Tween-80 105 % of control | [3] 95 % of control | dose: 200.0 mg/kg/injection, schedule: Q04DX003 (ip), vehicle: saline with Tween-80 110 % of control | dose: 400.0 mg/kg/injection, schedule: Q04DX003 (ip), vehicle: saline with Tween-80 110 % of control

CCCCCSCN(CC)CC
inactive: [4] 103 % of control | dose: 25.0 mg/kg/injection, schedule: Q01DX009 (ip), vehicle: saline 99 % of control and 101 % of control | dose: 50.0 mg/kg/injection, schedule: Q01DX009 (ip), vehicle: saline 100 % of control and 104 % of control and 91 % of control | dose: 100.0 mg/kg/injection, schedule: Q01DX009 (ip), vehicle: saline 99 % of control and 101 % of control and 104 % of control | [3] 114 % of control | dose: 200.0 mg/kg/injection, schedule: Q01DX009 (ip), vehicle: saline 119 % of control (2×) and 120 % of control

Cc1ccc(NC(=S)SCc2ccc(Cl)c(Cl)c2)cc1Cl
inactive: dose: 50.0 mg/kg/injection, schedule: Q01DX009 (ip), vehicle: suspension in saline 112 % of control | dose: 100.0 mg/kg/injection, schedule: Q01DX009 (ip), vehicle: suspension in saline 115 % of control | dose: 200.0 mg/kg/injection, schedule: Q01DX009 (ip), vehicle: suspension in saline 116 % of control

CO/N=C1\N=C(C)C(=N)N1c1ccccc1
inactive: [5] 104 % of control | [6] 99 % of control | [7] 107 % of control

CCCCCOCC(=O)O
inactive: [4] 104 % of control | [1] 94 % of control | [2] 96 % of control

CSc1nc(NC2OCC(OC(C)=O)C(OC(C)=O)C2OC(C)=O)c(N=CC=Nc2c(NC3OCC(OC(C)=O)C(OC(C)=O)C3OC(C)=O)nc(SC)n(C)c2=O)c(=O)n1C (stereo not given)
inactive: [5] 95 % of control | [6] 91 % of control | [7] 92 % of control

CCN(CC)CCNc1ccc(C)c2sc3c(OC)cccc3c(=O)c12
inactive: [1] 113 % of control | [2] 100 % of control | [3] 116 % of control

O=C(O)CNC(=O)CNC(=O)C(Cc1ccccc1)NC(=O)OCc1ccccc1 (stereo not drawn) (Cbz-[ξF]-Gly-Gly-OH)
inactive: [8] 100 % of control | [9] 99 % of control | [10] 91 % of control

c1ccc([C@H]2N[C@@H]2c2ccccn2)cc1
inactive: [8] 106 % of control | [9] 93 % of control

N#CCCn1nc(SCc2ccccc2)c(=S)[nH]c1=O
inactive: [8] 95 % of control | [9] 98 % of control | [10] 100 % of control

O=NNc1ccc(SSc2ccc(NN=O)cc2)cc1
inactive: dose: 1.56 mg/kg/injection, schedule: Q01DX009 (ip), vehicle: water 106 % of control | dose: 3.12 mg/kg/injection, schedule: Q01DX009 (ip), vehicle: water 100 % of control and 124 % of control | dose: 6.25 mg/kg/injection, schedule: Q01DX009 (ip), vehicle: water 121 % of control | [11] 123 % of control

Cc1nc2n[nH]c(N)c2nc1C
inactive: [12] 100 % of control | [13] 104 % of control | [14] 95 % of control

C=CCNC(=S)Nc1ccc(OC(=O)Nc2ccc(Cl)c(Cl)c2)cc1
inactive: [15] 102 % of control | [16] 96 % of control | [4] 104 % of control | [1] 98 % of control

CSC(C(O)C(O)C(O)C(O)CO)n1cnc2c(=S)nc[nH]c21 (stereo not given)
inactive: [8] 99 % of control | [9] 96 % of control | [10] 99 % of control

O=NCC(=O)OCc1ccccc1
inactive: [11] 95 % of control | dose: 25.0 mg/kg/injection, schedule: Q01DX009 (ip), vehicle: water 87 % of control | dose: 50.0 mg/kg/injection, schedule: Q01DX009 (ip), vehicle: water 95 % of control | dose: 100.0 mg/kg/injection, schedule: Q01DX009 (ip), vehicle: water 99 % of control | dose: 200.0 mg/kg/injection, schedule: Q01DX009 (ip), vehicle: water 99 % of control

O=C1c2ccccc2-c2c3c(cc4ccnc1c24)OCO3
inactive: [17] 115 % of control | [18] 101 % of control | [15] 105 % of control | [19] 97 % of control | [16] 89 % of control | [20] 99 % of control | [21] 100 % of control | [1] 99 % of control | [2] 99 % of control

Cn1cnc([N+](=O)[O-])c1Sc1ccc(Cl)cc1
inactive: dose: 0.79 mg/kg/injection, schedule: Q01DX009 (ip), vehicle: saline with Tween-80 104 % of control | dose: 1.56 mg/kg/injection, schedule: Q01DX009 (ip), vehicle: saline with Tween-80 104 % of control | [17] 97 % of control

CC(=O)NCCSC(NC(=O)c1ccccc1)C(=O)O (stereo not given)
inactive: [21] 90 % of control | [22] 101 % of control | [23] 98 % of control

CCOC(=O)C(NC(C)=O)(C(=O)OCC)c1ccc(Cl)cn1
inactive: [12] 103 % of control | [13] 100 % of control | [14] 95 % of control

COCCN(CCOC)C1C2=C(CCCC2)OS(=O)(=O)C1c1ccccc1 (stereo not given)
inactive: dose: 60.0 mg/kg/injection, schedule: Q01DX005 (ip), vehicle: Klucel (hydroxypropylcellulose) (HPC) 101 % of control | dose: 120.0 mg/kg/injection, schedule: Q01DX005 (ip), vehicle: Klucel (hydroxypropylcellulose) (HPC) 105 % of control | dose: 240.0 mg/kg/injection, schedule: Q01DX005 (ip), vehicle: Klucel (hydroxypropylcellulose) (HPC) 104 % of control

CN=C(N)N/N=C/COc1ccc(C)cc1
inactive: dose: 60.0 mg/kg/injection, schedule: Q01DX005 (ip), vehicle: saline 92 % of control | dose: 120.0 mg/kg/injection, schedule: Q01DX005 (ip), vehicle: saline 94 % of control

CCC(c1ccc(OC)cc1)C(NCC(=O)N/N=C/c1ccc(N(C)C)cc1)c1ccc(OC)cc1 (stereo not given)
inactive: dose: 100.0 mg/kg/injection, schedule: Q01DX001 (ip), vehicle: saline with Tween-80 100 % of control | dose: 200.0 mg/kg/injection, schedule: Q01DX001 (ip), vehicle: saline with Tween-80 100 % of control | dose: 400.0 mg/kg/injection, schedule: Q01DX001 (ip), vehicle: saline with Tween-80 99 % of control

O=C1/C(=C/c2ccccc2[N+](=O)[O-])CCCc2ccccc21
inactive: [21] 94 % of control | [22] 103 % of control | [23] 105 % of control

Ic1ccc(C2CC(c3ccccc3)=NN2c2ccccc2)cc1 (stereo not given)
inactive: [20] 97 % of control | [21] 87 % of control | [22] 87 % of control | [23] 90 % of control

N#CC1(C#N)C2C=CC(C3CCC=C32)C1(C#N)C#N (stereo not given)
inactive: [18] 100 % of control | [19] 110 % of control | [20] 106 % of control
